Measured values from US5872097A, “Oligopeptides with affinity to opioid receptors” (Pharmacia & Upjohn Aktiebolag, priority 1992, dated 1999).
Bridge positions count the residues as written; N and C are the ends. Square brackets hold non-standard residues; d marks the D form. Ends that are not written are not given here. Peptide text beside a SMILES is read from it. Dab = NCC[C@H](N)C(=O)O

Legend:
μ-receptor = molecular target: T1, μ-receptor (Rattus norvegicus, UniProt P33535); assay: (3H)-DAMGO displacement receptor assay; type: binding; details: LIGAND program; for IC50: displacement of (3H)-DAMGO specific binding, radioligand about 24 x 10^-10 M
T1 construct: from tissue; host or cells: rat brain (homogenate / synaptic plasma membranes, whole brain without cerebellum)
Experimental: (§1) In the experiments noted in FIGS. 3 and 4 and in Table 1 (^3 H)-(D-Ala^2,MePhe^4,Gly-ol^5)-enkephalin (DAGO or DAMGO) and (^3 H)-(D-Ala^2,D-Leu^5)-enkephalin (DADL) purchased from Amersham (Buckinghamshire, England) were used as radioligands in a binding assay performed as in Reg.
(§2) The peptides were employed for both receptor tests and bioassays on electrically stimulated guinea pig ileum strips (GPI-tests). The receptor assays were performed in the same manner as above with DAMGO as a radioligand to the μ-receptor. In the assays (^3 H)-DAMGO specific binding was displaced by the different tested substances (10^-5 M to 10^-10 M). […] Ups. […] The magnitude of activity in relation to a standard compound, normorphine was recorded.

[1] = molecular target: T2, μ-receptor ((3H)-DAGO binding site) (Rattus norvegicus, UniProt P33535); assay: (3H)-DAGO binding assay, rat brain homogenates; details: duplicate determination, one site model, EBDA/LIGAND
T2 construct: from tissue; host or cells: rat brain (homogenate / synaptic plasma membranes, whole brain without cerebellum)
Description: as §1
(§3) In the publication β-Casomorphins and Related Peptides Ed.

[2] = molecular target: T3, δ-receptor ((3H)-DADL binding site) (Rattus norvegicus, UniProt P33533); assay: (3H)-DADL binding assay, rat brain homogenates; details: duplicate determination, one site model, EBDA/LIGAND
T3 construct: from tissue; host or cells: rat brain homogenate
Description: as §1, §3

[3] = system: electrically stimulated guinea pig ileum strips; details: relative to standard compound normorphine = 1
Experimental: as §2

T1 sequence (P33535 whole entry): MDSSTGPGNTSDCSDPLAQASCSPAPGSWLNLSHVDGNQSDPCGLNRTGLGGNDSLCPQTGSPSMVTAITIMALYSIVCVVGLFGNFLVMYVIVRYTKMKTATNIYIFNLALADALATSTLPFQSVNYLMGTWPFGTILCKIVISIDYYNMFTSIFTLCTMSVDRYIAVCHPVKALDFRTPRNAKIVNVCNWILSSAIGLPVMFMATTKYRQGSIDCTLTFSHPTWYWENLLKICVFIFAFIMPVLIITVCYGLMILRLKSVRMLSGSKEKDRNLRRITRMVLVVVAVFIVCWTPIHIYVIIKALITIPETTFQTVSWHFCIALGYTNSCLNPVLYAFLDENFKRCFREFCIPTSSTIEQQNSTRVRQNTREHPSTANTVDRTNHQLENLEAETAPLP
T2 sequence (P33535 whole entry): as above
T3 sequence (P33533 whole entry): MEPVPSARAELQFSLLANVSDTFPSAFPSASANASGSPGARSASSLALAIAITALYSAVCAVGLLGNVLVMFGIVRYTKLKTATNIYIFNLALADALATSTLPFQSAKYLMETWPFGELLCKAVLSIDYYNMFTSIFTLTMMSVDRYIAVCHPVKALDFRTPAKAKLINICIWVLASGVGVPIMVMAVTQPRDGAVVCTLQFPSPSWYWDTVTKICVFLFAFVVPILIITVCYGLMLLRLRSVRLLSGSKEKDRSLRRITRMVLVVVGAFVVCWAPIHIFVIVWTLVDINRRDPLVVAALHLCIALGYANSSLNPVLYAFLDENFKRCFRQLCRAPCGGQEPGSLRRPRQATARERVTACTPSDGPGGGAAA

| Molecule | IC50 (μ-receptor) [nM] | GPI-test relative activity normorphine = 1 [3] | further results |
| --- | --- | --- | --- |
| CC(C)C[C@@H]1NC(=O)[C@H](Cc2ccccc2)NC(=O)[C@@H](NC(=O)[C@@H](N)Cc2ccc(O)cc2)CSSC[C@@H](C(=O)O)NC1=O (H-YCFLC-OH; disulfide 2-5) | 0.24 |  |  |
| CC(C)C[C@@H]1NC(=O)[C@H](Cc2ccccc2)NC(=O)[C@@H](NC(=O)[C@@H](N)Cc2ccc(O)cc2)CCCCNC(=O)[C@H](CCC(=O)O)NC1=O (H-YKFLE; lactam 2-C) | 0.055 |  |  |
| CC(C)C[C@@H]1NC(=O)[C@H](Cc2ccccc2)NC(=O)[C@@H](NC(=O)[C@@H](N)Cc2ccc(O)cc2)CCNC(=O)[C@H](CCC(=O)O)NC1=O (H-Y[Dab]FLE; lactam 2-C (inferred); N-terminus assumed) |  |  | Bmax (binding capacity) (μ-receptor; (3H)-DAMGO binding): 18.6 pmol |
| CC(C)C[C@H](NC(=O)[C@H](CC(C)C)NC(=O)CNC(=O)[C@@H](N)Cc1ccc(O)cc1)C(=O)O [Tyr--Gly--Leu--Leu, Tyr-Gly-Leu-Leu] (H-YGLL-OH) |  |  | Ki [1]: 32000 nM; Ki [2]: 24000 nM |
| CC(C)C[C@H](NC(=O)[C@H](Cc1ccccc1)NC(=O)[C@@H](C)NC(=O)[C@@H](N)Cc1ccc(O)cc1)C(=O)N[C@@H](CCC(=O)O)C(=O)O [Tyr-D-Ala-Phe-Leu-Glu] (H-Y[dA]FLE-OH) | 0.048 | 0.01 |  |
| CC(C)C[C@H](NC(=O)[C@H](Cc1ccccc1)NC(=O)[C@@H](C)NC(=O)[C@@H](N)Cc1ccc(O)cc1)C(N)=O [Tyr-D-Ala-Phe-Leu-NH2, reference compound] (H-Y[dA]FL-NH2) | 0.1 | 0.3 |  |
| CSCC[C@H](NC(=O)[C@H](Cc1ccccc1)NC(=O)[C@@H](C)NC(=O)[C@@H](N)Cc1ccc(O)cc1)C(N)=O [Tyr-D-Ala-Phe-Met-NH2, reference compound] (H-Y[dA]FM-NH2) | 0.15 | 0.5 |  |
| YPFLE [Tyr-Pro-Phe-Leu-Glu] | 0.024 | 0.01 |  |
| YPFVE [Tyr--Pro--Phe--Val--Glu, Tyr-Pro-Phe-Val-Glu, reference compound] |  |  | Ki [1]: 8900 nM |
| YSFLE-NH2 [Tyr-Ser-Phe-Leu-Glu-NH2] | 2.6 |  |  |
